According to PubChem BioAssay (NCI):
Values after ≈ are worked out from the molar mass of the structure shown.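 Growth conditions: 96-well plates. Treatment: test compound, 48 hours, 5 concentrations. Analysis: linear interpolation between bracketing concentrations; unreached endpoints set to highest concentration. Here, GI50 denotes the concentration required for 50% inhibition of growth. Definition used: TGI = concentration required for complete inhibition of growth.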

How the values were obtained:
Experiment in all cases: growth of human tumour cells (NCI), 48 h
A498 renal = system: A498 renal
DLD-1 colon = system: DLD-1 colon
DMS 114 small cell lung = system: DMS 114 small cell lung
DMS 273 small cell lung = system: DMS 273 small cell lung
HOP-18 NSCLC = system: HOP-18 NSCLC
KM20L2 colon = system: KM20L2 colon
M19-MEL melanoma = system: M19-MEL melanoma
XF 498 CNS = system: XF 498 CNS
HS 578T breast = system: HS 578T breast
MDA-MB-231 breast = system: MDA-MB-231 breast
MDA-MB-435 = system: MDA-MB-435
MDA-N = system: MDA-N
PC-3 prostate = system: PC-3 prostate
T-47D breast = system: T-47D breast

| Compound | TGI (A498 renal) [µM] | TGI (DLD-1 colon) [µM] | TGI (DMS 114 small cell lung) [µM] | TGI (DMS 273 small cell lung) [µM] | TGI (HOP-18 NSCLC) [µM] | TGI (KM20L2 colon) [µM] | TGI (M19-MEL melanoma) [µM] | TGI (XF 498 CNS) [µM] | TGI (HS 578T breast) | TGI (MDA-MB-231 breast) | TGI (MDA-MB-435) | TGI (MDA-N) [µM] | TGI (PC-3 prostate) | TGI (T-47D breast) | further results |
| --- | --- | --- | --- | --- | --- | --- | --- | --- | --- | --- | --- | --- | --- | --- | --- |
| Cc1c2ccncc2cc2c1[nH]c1ccccc12 | 12.2 | 38.5 | 16.9 | 4.96 | 7.35 | 22.4 | 10.9 | 1.89 |  |  |  |  |  |  |  |
| Nc1[nH]nc(Nc2ccc(Cl)cc2)c1P(=O)(c1ccccc1)c1ccccc1 | > 100 |  |  |  |  |  |  |  | 37.2 µM | 49.8 µM | 42.8 µM | 47.4 | 61.1 µM | > 100 µM |  |
| CC(=O)Nc1ccc(C(=O)NN2C(=O)C(Cl)/C2=C/c2ccco2)cc1 (stereo not drawn) |  | > 100 |  |  | > 100 |  | > 100 |  |  |  |  |  |  |  |  |
| CC(=O)c1c(C)nc(SSc2nc(C)c(C(C)=O)c(-c3ccc(Cl)cc3)c2C#N)c(C#N)c1-c1ccc(Cl)cc1 |  |  |  |  |  |  |  |  | 54.8 mg/L | 103 mg/L | > 150 mg/L |  | > 150 mg/L | > 150 mg/L | GI50 (HS 578T breast): 22.9 mg/L (≈ 37.9 µM); GI50 (MDA-MB-231 breast): 34.4 mg/L (≈ 56.9 µM); GI50 (MDA-MB-435): > 150 mg/L; GI50 (PC-3 prostate): > 150 mg/L; GI50 (T-47D breast): 36.1 mg/L (≈ 59.8 µM) |
| CC(=O)OCC1OC(n2cc(F)c(=O)[nH]c2=O)C(NC(=O)OCc2ccccc2)C(OC(C)=O)C1OC(C)=O (stereo not drawn) | > 100 | > 100 | > 100 | > 100 | > 100 | > 100 | > 100 | > 100 |  |  |  |  |  |  |  |
| CCP(=O)(CC)C(Cl)Cl |  |  |  |  |  |  |  |  | > 100 µM | > 100 µM | > 100 µM | > 100 | > 100 µM | > 100 µM |  |
| COc1cc(C(C)O)c(S(=O)(=O)CC(C)O)nn1 (stereo not drawn) | > 100 |  |  |  |  |  |  |  | > 100 µM |  | > 100 µM | > 100 |  |  |  |
| O=C(N/N=C/c1cc(Cl)cc(Cl)c1[O-])c1ccccc1O.O=C(N/N=C/c1cc(Cl)cc(Cl)c1[O-])c1ccccc1O.[Co+2] |  |  |  |  |  | 7.43 |  |  |  |  |  |  |  |  | GI50 (KM20L2 colon): 2.14 µM |
| O=C1CC2CC3OC3[C@H]3c4cc5c(cc4C(=O)N1C23)OCO5 (stereo partly drawn) |  |  | > 100 | > 100 |  | > 100 | > 100 | > 100 |  |  |  |  |  |  |  |
